Molecular target: 5-hydroxytryptamine receptor 4 (Rattus norvegicus, UniProt Q62758)
Sequence (Q62758 whole entry): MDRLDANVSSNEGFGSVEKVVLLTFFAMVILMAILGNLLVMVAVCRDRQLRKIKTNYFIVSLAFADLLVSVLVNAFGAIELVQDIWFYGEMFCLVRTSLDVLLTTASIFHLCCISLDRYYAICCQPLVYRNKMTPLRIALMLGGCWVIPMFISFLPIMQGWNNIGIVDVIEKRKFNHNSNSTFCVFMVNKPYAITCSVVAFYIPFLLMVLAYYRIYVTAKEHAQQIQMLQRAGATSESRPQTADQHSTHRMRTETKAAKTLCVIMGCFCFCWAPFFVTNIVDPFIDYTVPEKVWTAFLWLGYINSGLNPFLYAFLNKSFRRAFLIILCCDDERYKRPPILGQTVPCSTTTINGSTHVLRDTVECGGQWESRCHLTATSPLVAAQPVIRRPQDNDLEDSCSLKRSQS

Row | Compound | Ki [nM]
1 | NCCc1c[nH]c2ccc(C(N)=O)cc12 [[3H]-5-carboxamidotryptamine] | 1000
2 | COc1cc(N)c(Cl)cc1C(=O)NC1CCN(CCCOc2ccc(F)cc2)CC1OC (stereo unspecified) [4-amino-5-chloro-N-(1-(3-(4-fluorophenoxy)propyl)-3-methoxypiperidin-4-yl)-2-methoxybenzamide] | 25
3 | Cn1cc(CCN)c2cc(O)ccc21 [5-HT,omega-N-Me] | 263
4 | CN1C2CCC1CC(OC(=O)c1c[nH]c3ccccc13)C2 (stereo unspecified) | 159
5 | COc1cc(N)c(Cl)cc1C(=O)NC1CCN2CCCC1C2 (stereo unspecified) [NSC_3035240] | 27
6 | COc1ccc2[nH]cc(CCN)c2c1 [tryptamine, 5-Methoxy] | 112

Source: BindingDB's records for doi:10.1016/0014-2999(96)00122-7 (Synaptic Pharmaceutical, 1996)
